The record followed here is ChEMBL document CHEMBL5696441 (Nat Chem Biol, 2011).

Assay [1] concerns the target Cyclin-dependent kinase 5/CDK5 activator 1 (Homo sapiens) (UniProt Q00535+Q15078). The assay is described as follows: Inhibition of human CDK5/p25NCK assessed as residual activity at 1 uM using RBER-CHKtide as substrate in presence of 33P-ATP by ProQinase assay relative to control. The assay is classed as protein-complex assay.
Assay [2] relates to Hepatocyte growth factor receptor (Homo sapiens), P08581 [D1228H]. The assay is described as follows: Inhibition of human MET D1228H mutant assessed as residual activity at 1 uM using poly(Ala,Glu,Lys,Tyr)6:2:5:1 as substrate in presence of 33P-ATP by ProQinase assay relative to control.
The target of assay [3] is Calcium/calmodulin-dependent protein kinase type II subunit delta (Homo sapiens) (UniProt Q13557). The assay is described as follows: Inhibition of CAMK2D (unknown origin) assessed as remaining activity at 1 uM by Kinome scan method relative to control.
The target in assay [4] is Tyrosine-protein kinase Fgr (Homo sapiens) (UniProt P09769). The assay is described as follows: Inhibition of human FGR assessed as residual activity at 1 uM using polyEY as substrate in presence of 33P-ATP by ProQinase assay relative to control.
The target of assay [5] is Rho-associated protein kinase 1 (Homo sapiens) (UniProt Q13464). The assay is described as follows: Inhibition of ROCK1 (unknown origin) assessed as remaining activity at 1 uM by Kinome scan method relative to control.
In assay [6] the target is Cyclin-dependent kinase 19 (Homo sapiens) (UniProt Q9BWU1). The assay is described as follows: Inhibition of CDK11 (unknown origin) assessed as remaining activity at 1 uM by Kinome scan method relative to control.
The target in assay [7] is Calcium/calmodulin-dependent protein kinase kinase 1 (Homo sapiens) (UniProt Q8N5S9). Description: Inhibition of human CAMKK1 assessed as residual activity at 1 uM using RB-CTF as substrate in presence of 33P-ATP by ProQinase assay relative to control.
Assay [8] has as its system RAF proto-oncogene serine/threonine-protein kinase (Homo sapiens), P04049 [Y340D,Y341D]. The assay is described as follows: Inhibition of human RAF1 Y340D/Y341D double mutant assessed as residual activity at 1 uM using MEK1-K97M as substrate in presence of 33P-ATP by ProQinase assay relative to control.
Assay [9] deals with Receptor-type tyrosine-protein kinase FLT3 (Homo sapiens) (UniProt P36888). Description: Inhibition of human FLT3 assessed as residual activity at 1 uM using Poly(Ala,Glu,Lys,Tyr)6:2:5:1 as substrate in presence of 33P-ATP by ProQinase assay relative to control.
Assay [10] is described as follows: Anti-inflammatory activity against human derived high respond PBMC cells assessed as inhibition in stimulated IP-10 chemokine release incubated for 2 hrs in the presence of LPS/SEB/aCD28 by Luminex based sandwich immunoassay. The assay is classed as functional, cell-based.
Assay [11] relates to Mast/stem cell growth factor receptor Kit (Homo sapiens), P10721 [L576P]. Description: Inhibition of KIT L576P mutant (unknown origin) assessed as remaining activity at 1 uM by Kinome scan method relative to control.
Assay [12] has as its system Hepatocyte growth factor receptor (Homo sapiens), P08581 [Y1230H]. The assay is described as follows: Inhibition of human MET Y1230H mutant assessed as residual activity at 1 uM using poly(Ala,Glu,Lys,Tyr)6:2:5:1 as substrate in presence of 33P-ATP by ProQinase assay relative to control.
Assay [13] deals with T1, Serine/threonine-protein kinase Nek1 (Homo sapiens) (UniProt Q96PY6).
T1 sequence (whole entry): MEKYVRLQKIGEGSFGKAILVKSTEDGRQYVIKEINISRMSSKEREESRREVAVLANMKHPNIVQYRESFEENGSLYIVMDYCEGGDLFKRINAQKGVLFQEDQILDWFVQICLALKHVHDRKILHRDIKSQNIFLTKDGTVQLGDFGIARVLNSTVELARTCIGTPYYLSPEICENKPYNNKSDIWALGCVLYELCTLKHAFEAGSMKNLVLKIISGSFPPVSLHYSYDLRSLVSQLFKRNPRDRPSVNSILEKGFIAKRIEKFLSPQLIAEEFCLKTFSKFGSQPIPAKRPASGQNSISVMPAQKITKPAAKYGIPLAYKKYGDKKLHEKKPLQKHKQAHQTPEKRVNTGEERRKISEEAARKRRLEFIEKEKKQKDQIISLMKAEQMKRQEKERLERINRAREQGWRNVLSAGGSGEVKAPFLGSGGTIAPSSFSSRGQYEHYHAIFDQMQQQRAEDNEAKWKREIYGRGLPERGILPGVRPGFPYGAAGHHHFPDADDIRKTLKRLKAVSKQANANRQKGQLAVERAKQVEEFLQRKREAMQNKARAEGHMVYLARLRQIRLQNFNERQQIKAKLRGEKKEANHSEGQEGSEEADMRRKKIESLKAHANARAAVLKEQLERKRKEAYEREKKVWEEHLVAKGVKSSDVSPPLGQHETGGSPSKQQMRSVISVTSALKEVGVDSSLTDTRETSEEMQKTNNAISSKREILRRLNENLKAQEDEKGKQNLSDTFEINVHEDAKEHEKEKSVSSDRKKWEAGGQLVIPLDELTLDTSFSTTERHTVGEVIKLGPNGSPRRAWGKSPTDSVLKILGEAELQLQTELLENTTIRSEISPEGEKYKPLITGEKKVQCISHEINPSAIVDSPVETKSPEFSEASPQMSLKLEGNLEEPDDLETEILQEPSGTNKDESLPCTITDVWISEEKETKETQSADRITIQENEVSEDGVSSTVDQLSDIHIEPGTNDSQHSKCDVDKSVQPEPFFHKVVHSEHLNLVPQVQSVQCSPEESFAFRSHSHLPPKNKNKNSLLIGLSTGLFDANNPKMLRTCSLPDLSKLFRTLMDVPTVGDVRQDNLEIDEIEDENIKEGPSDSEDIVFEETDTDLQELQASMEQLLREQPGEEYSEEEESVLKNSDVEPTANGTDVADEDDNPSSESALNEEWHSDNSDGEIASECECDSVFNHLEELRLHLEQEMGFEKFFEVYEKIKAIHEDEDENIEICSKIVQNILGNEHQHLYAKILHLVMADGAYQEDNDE
The assay is described as follows: Inhibition of human NEK1 assessed as residual activity at 1 uM using RBER-CHKtide as substrate in presence of 33P-ATP by ProQinase assay relative to control.

The target of assay [14] is Mitogen-activated protein kinase 9 (Homo sapiens) (UniProt P45984). Description: Inhibition of JNK2 (unknown origin) assessed as remaining activity at 1 uM by Kinome scan method relative to control.
Assay [15] addresses Casein kinase I isoform gamma-3 (Homo sapiens) (UniProt Q9Y6M4). Description: Inhibition of human CK1gamma3 assessed as residual activity at 1 uM using casein as substrate in presence of 33P-ATP by ProQinase assay relative to control.
Assay [16] relates to Receptor-type tyrosine-protein kinase FLT3 (Homo sapiens), P36888 [N841I]. The assay is described as follows: Inhibition of FLT3 N841I mutant (unknown origin) assessed as remaining activity at 1 uM by Kinome scan method relative to control.
Assay [17] deals with Mitogen-activated protein kinase kinase kinase 1 (Homo sapiens) (UniProt Q13233). The assay is described as follows: Inhibition of MAP3K1 (unknown origin) assessed as remaining activity at 1 uM by Kinome scan method relative to control.
Mitogen-activated protein kinase kinase kinase 1 (Homo sapiens), sequence (Q13233 whole entry): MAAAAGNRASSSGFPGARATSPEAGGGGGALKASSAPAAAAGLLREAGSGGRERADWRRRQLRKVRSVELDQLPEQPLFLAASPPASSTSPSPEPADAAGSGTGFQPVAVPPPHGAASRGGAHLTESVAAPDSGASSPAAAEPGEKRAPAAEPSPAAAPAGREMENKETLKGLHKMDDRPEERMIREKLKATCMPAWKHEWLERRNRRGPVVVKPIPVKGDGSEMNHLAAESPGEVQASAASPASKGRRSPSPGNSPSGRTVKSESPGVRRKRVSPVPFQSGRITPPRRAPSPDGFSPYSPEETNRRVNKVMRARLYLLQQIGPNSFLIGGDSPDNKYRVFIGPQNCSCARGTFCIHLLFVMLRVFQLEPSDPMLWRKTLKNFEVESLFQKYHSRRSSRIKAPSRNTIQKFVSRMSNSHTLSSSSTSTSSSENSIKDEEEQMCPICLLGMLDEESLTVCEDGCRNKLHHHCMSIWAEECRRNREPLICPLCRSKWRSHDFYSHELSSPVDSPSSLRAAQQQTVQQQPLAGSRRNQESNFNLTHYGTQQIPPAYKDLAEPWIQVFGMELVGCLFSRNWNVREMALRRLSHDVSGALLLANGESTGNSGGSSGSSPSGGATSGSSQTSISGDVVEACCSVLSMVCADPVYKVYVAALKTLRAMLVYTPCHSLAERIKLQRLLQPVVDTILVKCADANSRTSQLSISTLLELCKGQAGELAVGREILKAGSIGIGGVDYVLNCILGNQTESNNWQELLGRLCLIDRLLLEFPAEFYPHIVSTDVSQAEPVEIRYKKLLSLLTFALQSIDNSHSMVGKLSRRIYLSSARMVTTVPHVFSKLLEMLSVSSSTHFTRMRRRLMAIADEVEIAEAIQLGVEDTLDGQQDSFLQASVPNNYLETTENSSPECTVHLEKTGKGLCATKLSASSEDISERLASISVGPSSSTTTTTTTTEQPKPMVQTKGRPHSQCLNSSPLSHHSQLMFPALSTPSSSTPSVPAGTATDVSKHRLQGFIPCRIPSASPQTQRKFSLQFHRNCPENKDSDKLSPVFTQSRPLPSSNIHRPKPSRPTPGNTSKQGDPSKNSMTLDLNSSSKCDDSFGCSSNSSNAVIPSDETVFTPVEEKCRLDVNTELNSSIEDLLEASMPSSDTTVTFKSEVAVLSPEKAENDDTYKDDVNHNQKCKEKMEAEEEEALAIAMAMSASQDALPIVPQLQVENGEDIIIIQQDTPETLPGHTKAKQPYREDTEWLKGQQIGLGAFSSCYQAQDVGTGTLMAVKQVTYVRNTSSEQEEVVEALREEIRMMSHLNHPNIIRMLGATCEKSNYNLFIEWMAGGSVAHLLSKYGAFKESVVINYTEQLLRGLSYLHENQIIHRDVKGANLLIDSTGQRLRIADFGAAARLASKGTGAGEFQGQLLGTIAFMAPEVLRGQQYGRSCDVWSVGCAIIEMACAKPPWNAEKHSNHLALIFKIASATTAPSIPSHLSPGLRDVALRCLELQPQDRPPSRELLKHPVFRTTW

Cyclin-dependent kinase 5/CDK5 activator 1 (Homo sapiens), sequence (Q00535 whole entry): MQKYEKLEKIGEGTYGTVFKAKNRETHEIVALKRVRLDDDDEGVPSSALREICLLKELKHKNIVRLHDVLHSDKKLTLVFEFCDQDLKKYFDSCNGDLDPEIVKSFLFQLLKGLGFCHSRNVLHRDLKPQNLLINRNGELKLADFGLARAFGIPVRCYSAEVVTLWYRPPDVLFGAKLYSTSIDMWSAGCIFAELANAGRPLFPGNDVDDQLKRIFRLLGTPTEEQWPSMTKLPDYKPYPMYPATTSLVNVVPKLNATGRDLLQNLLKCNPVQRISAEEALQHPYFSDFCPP
Cyclin-dependent kinase 5/CDK5 activator 1 (Homo sapiens), sequence (Q15078 99-307 partner limits assumed): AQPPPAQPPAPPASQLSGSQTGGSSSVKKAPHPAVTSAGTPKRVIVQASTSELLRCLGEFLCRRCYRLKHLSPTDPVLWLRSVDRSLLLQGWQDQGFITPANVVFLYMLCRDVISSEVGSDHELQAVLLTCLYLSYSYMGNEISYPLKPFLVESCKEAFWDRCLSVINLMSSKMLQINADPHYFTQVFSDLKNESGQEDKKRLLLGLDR
Calcium/calmodulin-dependent protein kinase kinase 1 (Homo sapiens), sequence (Q8N5S9 whole entry, looked up): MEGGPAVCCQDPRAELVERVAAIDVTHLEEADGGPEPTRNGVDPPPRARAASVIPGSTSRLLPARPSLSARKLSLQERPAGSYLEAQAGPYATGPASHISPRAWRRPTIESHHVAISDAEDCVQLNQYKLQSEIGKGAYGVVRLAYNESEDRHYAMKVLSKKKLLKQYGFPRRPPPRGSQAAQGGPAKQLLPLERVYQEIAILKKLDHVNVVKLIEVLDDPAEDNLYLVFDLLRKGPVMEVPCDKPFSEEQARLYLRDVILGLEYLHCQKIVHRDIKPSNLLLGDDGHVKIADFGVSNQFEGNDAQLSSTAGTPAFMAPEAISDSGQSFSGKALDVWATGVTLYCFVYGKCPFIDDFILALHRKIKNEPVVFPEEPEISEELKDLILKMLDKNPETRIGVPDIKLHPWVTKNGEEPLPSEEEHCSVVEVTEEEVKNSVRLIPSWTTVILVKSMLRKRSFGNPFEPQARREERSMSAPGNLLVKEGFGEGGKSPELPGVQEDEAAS
Mitogen-activated protein kinase 9 (Homo sapiens), sequence (P45984 whole entry, looked up, canonical isoform): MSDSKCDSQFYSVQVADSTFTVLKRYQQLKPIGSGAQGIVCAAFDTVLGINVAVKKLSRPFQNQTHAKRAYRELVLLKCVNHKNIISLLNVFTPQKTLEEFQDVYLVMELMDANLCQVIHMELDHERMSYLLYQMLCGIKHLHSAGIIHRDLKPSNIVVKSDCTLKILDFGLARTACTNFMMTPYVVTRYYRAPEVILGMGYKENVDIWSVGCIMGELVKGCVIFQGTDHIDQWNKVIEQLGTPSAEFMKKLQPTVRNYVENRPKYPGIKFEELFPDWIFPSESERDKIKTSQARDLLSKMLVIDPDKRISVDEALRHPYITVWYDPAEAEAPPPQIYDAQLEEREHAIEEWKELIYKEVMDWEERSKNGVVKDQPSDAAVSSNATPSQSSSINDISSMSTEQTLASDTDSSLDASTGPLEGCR
Casein kinase I isoform gamma-3 (Homo sapiens), sequence (Q9Y6M4 whole entry, looked up, canonical isoform): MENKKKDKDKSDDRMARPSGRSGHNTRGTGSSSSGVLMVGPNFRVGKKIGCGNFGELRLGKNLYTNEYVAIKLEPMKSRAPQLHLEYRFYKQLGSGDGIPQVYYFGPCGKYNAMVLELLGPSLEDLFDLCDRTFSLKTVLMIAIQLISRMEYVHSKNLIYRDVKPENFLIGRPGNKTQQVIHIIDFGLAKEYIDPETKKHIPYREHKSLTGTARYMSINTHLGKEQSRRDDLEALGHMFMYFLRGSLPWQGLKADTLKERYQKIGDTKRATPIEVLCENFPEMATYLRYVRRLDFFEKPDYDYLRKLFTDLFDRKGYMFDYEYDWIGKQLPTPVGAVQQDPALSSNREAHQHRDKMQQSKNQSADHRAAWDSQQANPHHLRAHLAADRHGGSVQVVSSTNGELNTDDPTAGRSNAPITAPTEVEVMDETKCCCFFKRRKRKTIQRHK
Tyrosine-protein kinase Fgr (Homo sapiens), sequence (P09769 2-529 limits assumed): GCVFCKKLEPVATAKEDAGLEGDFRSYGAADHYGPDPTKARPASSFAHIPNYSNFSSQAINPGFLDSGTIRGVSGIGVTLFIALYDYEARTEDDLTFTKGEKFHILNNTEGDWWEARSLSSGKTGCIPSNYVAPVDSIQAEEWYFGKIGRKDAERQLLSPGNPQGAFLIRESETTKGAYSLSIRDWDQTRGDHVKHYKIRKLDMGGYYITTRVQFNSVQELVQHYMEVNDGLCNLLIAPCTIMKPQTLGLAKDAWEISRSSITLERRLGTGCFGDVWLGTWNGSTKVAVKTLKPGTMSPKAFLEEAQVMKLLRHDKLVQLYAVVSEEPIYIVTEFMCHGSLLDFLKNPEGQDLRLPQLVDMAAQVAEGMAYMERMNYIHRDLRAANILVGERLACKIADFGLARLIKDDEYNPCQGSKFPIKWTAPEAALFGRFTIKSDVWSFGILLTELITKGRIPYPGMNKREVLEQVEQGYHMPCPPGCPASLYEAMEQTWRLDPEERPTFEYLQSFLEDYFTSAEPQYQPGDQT
Calcium/calmodulin-dependent protein kinase type II subunit delta (Homo sapiens), sequence (Q13557 whole entry): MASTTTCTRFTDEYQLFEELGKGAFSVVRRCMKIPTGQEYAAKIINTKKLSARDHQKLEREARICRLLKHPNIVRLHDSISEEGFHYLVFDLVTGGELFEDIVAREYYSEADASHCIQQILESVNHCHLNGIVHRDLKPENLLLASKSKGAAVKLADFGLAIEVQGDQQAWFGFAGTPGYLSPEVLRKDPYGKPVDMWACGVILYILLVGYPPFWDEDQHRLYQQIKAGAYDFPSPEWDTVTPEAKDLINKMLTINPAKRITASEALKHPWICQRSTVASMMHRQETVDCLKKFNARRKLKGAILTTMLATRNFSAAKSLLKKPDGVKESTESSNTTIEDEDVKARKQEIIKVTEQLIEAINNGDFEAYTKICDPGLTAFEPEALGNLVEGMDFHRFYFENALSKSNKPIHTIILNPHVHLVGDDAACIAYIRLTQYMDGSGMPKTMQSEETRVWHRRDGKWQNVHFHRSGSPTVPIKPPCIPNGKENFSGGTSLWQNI
Cyclin-dependent kinase 19 (Homo sapiens), sequence (Q9BWU1 whole entry): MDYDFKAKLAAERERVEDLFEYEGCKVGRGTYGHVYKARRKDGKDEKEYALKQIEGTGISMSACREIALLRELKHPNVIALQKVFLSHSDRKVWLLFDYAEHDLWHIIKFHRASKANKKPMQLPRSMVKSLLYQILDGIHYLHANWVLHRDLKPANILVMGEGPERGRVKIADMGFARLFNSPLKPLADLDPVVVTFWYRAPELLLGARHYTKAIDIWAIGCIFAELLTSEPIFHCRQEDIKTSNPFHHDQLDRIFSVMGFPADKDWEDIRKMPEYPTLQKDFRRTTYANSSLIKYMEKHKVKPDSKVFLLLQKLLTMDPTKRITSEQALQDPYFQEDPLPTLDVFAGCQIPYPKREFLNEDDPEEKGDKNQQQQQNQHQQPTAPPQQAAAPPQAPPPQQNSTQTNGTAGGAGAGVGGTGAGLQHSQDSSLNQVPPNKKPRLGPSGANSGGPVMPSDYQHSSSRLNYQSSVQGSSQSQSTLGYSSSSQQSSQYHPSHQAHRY

Take `O=C1c2ccc(Nc3ccc(F)cc3F)cc2CCc2ccc(OC[C@H](O)CO)cc21` [Skepinone-L]: the Activity is 99% in assay [1]; 97% in assay [2]; 100% in [3]; 100% in assay [4]; 100% in assay [5]; 100% in assay [6]. Besides, the Activity in assay [7] is 83%; in [8], 91%; in assay [9] it was 106%; in assay [11] it was 98%; in assay [12] it was 102%; in [13], 83%. Moreover, the Activity in [14] came to 100%; in assay [15], 95%; in assay [16] it was 96%; in assay [17], 100%. For the same compound, in [10], the IC50 result is reported as “Not Active”.
